Laboratory results from article PMC5469811, “Identification of GXXXXG motif in Chrysophsin-1 and its implication in the design of analogs with cell-selective antimicrobial and anti-endotoxin activities” (Scientific Reports, 2017).
Converted amounts (≈) assume the structure as drawn. Residues, ends and D or L forms follow the SMILES beside them.

Assays:
[1] = system: Staphylococcus aureus (ATCC 29213); experiment: microbe, parasite or virus in culture; assay type: cell-based; settings: Staphylococcus aureus (ATCC 29213); averages of three repeats; read-out: Minimum inhibitory concentration (MIC)
Method: (§1) Antibacterial assay against various Gram-positive and Gram-negative strains of bacteria was performed by the serial two-fold dilution method according to the previously reported procedure, [36]. The antibacterial assays were repeated thrice and the averages of these MIC values were reported.

[2] = system: Escherichia coli (ATCC 9637); experiment: microbe, parasite or virus in culture; assay type: cell-based; settings: Escherichia coli (ATCC 9637); averages of three repeats; read-out: Minimum inhibitory concentration (MIC)
Method: as §1

[3] = system: Staphylococcus aureus (ATCC 700699 MRSA); experiment: microbe, parasite or virus in culture; assay type: cell-based; settings: Staphylococcus aureus (ATCC 700699 MRSA); averages of three repeats; read-out: Minimum inhibitory concentration (MIC)
Method: as §1

[4] = system: Staphylococcus aureus (ATCC 700698 MRSA); experiment: microbe, parasite or virus in culture; assay type: cell-based; settings: Staphylococcus aureus (ATCC 700698 MRSA); averages of three repeats; read-out: Minimum inhibitory concentration (MIC)
Method: as §1

[5] = system: Pseudomonas aeruginosa (ATCC BAA-427); experiment: microbe, parasite or virus in culture; assay type: cell-based; settings: Pseudomonas aeruginosa (ATCC BAA-427); averages of three repeats; read-out: Minimum inhibitory concentration (MIC)
Method: as §1

[6] = system: Klebsiella pneumoniae (ATCC 27736); experiment: microbe, parasite or virus in culture; assay type: cell-based; settings: Klebsiella pneumoniae (ATCC 27736); averages of three repeats; read-out: Minimum inhibitory concentration (MIC)
Method: as §1

[7] = system: Staphylococcus aureus (ATCC 25923); experiment: microbe, parasite or virus in culture; assay type: cell-based; settings: Staphylococcus aureus (ATCC 25923); averages of three repeats; read-out: Minimum inhibitory concentration (MIC)
Method: as §1

[8] = system: Staphylococcus aureus (ATCC 33592) Methicillin resistant Genatmicin resistant; experiment: microbe, parasite or virus in culture; assay type: cell-based; settings: Staphylococcus aureus (ATCC 33592), methicillin and gentamicin resistant; averages of three repeats; read-out: Minimum inhibitory concentration (MIC)
Method: as §1

[9] = system: Escherichia coli (ATCC 25922); experiment: microbe, parasite or virus in culture; assay type: cell-based; settings: Escherichia coli (ATCC 25922); averages of three repeats; read-out: Minimum inhibitory concentration (MIC)
Method: as §1

[10] = system: Staphylococcus aureus (BAA-44)MDR; experiment: microbe, parasite or virus in culture; assay type: cell-based; settings: Staphylococcus aureus (BAA-44) MDR; averages of three repeats; read-out: Minimum inhibitory concentration (MIC)
Method: as §1

[11] = system: Bacillus subtilis (ATCC 6633); experiment: microbe, parasite or virus in culture; assay type: cell-based; settings: Bacillus subtilis (ATCC 6633); averages of three repeats; read-out: Minimum inhibitory concentration (MIC)
Method: as §1

E. coli ATCC 25922 [12] = experiment: Synergy with conventional antibiotics, checkerboard titration; assay type: cell-based, Escherichia coli
Method: The checkerboard titration method was followed to check the synergy of peptides with other antibiotics. First, 2-fold serial dilutions of the antibiotics and antimicrobial peptides were prepared. Subsequently, 50 μl each of different concentrations of antibiotics and of antimicrobial peptides was mixed and added into 100 μl of log phase bacteria culture in a 96-well plate. The plates were then incubated at 37 °C for 24 h. The fractional inhibitory concentration (FIC) index (FICI) was calculated as follows[39]: FICI=(MICofdrugAincombination)/(MICofdrugAalone)+(MICofdrugBincombination)/(MICofdrugB): FICI < 0.5 is considered to indicate synergy; 0.5 < FICI < 1.0 is considered additive; 1.0 < FICI < 4.0 is considered indifferent; and FICI > 4.0 is considered antagonism.

S. aureus (ATCC 25923) = assay type: cell-based, Staphylococcus aureus; settings: S. aureus (ATCC 25923)
Method: (§2) E. coli ATCC25922 was grown to 10^6 CFU/ml in fresh MH broth with various divalent and monovalent salts at their physiological concentrations. Serial dilutions of chrysophsin-1 and its variants prepared with the same MH broth were added to the E. coli ATCC 25922 suspensions. The bacteria were incubated at 37 °C in a shaking incubator for 18 h and the MIC values of individual peptides against E. coli ATCC 25922 were determined. Thermal tolerance of Chrysophsin-1 and its variants was checked by incubating the peptides at 4 °C, 60 °C and 90 °C for 1 h prior to MIC determination. The antibacterial activity in presence of serum was carried out by adding a final concentration of 10% fetal bovine serum in the assay diluents containing 0.4% BSA, 0.02% glacial acetic acid. The subsequent steps in both the experiments were consistent with the MIC determination method.

E. coli (ATCC 25922) = assay type: cell-based, Escherichia coli; settings: E. coli (ATCC 25922)
Method: as §2

E. coli ATCC 25922 [13] = assay type: cell-based, Escherichia coli; settings: E. coli ATCC 25922
Method: as §2

[14] = system: Sporothrix schenckii (Patient isolates); experiment: microbe, parasite or virus in culture; assay type: cell-based; settings: Sporothrix schenckii (patient isolates); NCCLS micro broth dilution, 35 °C; read-out: Minimum inhibitory concentration (MIC)
Cryptococcus neoformans = experiment: microbe, parasite or virus in culture; assay type: cell-based; settings: Cryptococcus neoformans; NCCLS micro broth dilution, 35 °C, 72 h, absorbance 492 nm; read-out: Minimum inhibitory concentration (MIC)
Method: (§3) The anti- fungal activity of peptides was performed according to the standard micro broth dilution technique as per NCCLS guidelines. These plates were incubated in a moist chamber at 35 °C, and an absorbance at 492 nm was recorded on a VersaMax microplate reader after 48 h for C. albicans ATCC 10231 and C. parapsilosis ATCC 22019 and 72 h for C. neoformans.

[15] = system: Candida parapsilosis (ATCC 22019); experiment: microbe, parasite or virus in culture; assay type: cell-based; settings: Candida parapsilosis (ATCC 22019); NCCLS micro broth dilution, 35 °C, 48 h, absorbance 492 nm; read-out: Minimum inhibitory concentration (MIC)
Method: as §3

[16] = system: Candida albicans (ATCC 10231); experiment: microbe, parasite or virus in culture; assay type: cell-based; settings: Candida albicans (ATCC 10231); NCCLS micro broth dilution, 35 °C, 48 h, absorbance 492 nm; read-out: Minimum inhibitory concentration (MIC)
Method: as §3

[17] = peptide incubated 1 h at 4 °C prior to MIC determination
[18] = peptide incubated 1 h at 60 °C prior to MIC determination
[19] = peptide incubated 1 h at 90 °C prior to MIC determination

Work on `CC[C@H](C)[C@H](NC(=O)[C@H](C)NC(=O)[C@H](CCCCN)NC(=O)CNC(=O)[C@H](C)NC(=O)[C@H](Cc1c[nH]cn1)NC(=O)[C@@H](NC(=O)[C@H](C)NC(=O)CNC(=O)[C@H](CCCCN)NC(=O)[C@@H](NC(=O)[C@H](CC(C)C)NC(=O)[C@H](Cc1c[nH]c2ccccc12)NC(=O)CNC(=O)[C@H](Cc1ccccc1)NC(=O)[C@@H](N)Cc1ccccc1)[C@@H](C)CC)[C@@H](C)CC)C(=O)N[C@@H](Cc1c[nH]cn1)C(=O)NCC(=O)N[C@@H](CC(C)C)C(=O)N[C@H](C(=O)N[C@@H](Cc1c[nH]cn1)C(=O)N[C@@H](CCCNC(=N)N)C(=O)N[C@@H](CCCNC(=N)N)C(=O)N[C@@H](CCCNC(=N)N)C(=O)N[C@@H](Cc1c[nH]cn1)C(N)=O)[C@@H](C)CC` [Chr-1, reference compound] (H-FFGWLIKGAIHAGKAIHGLIHRRRH-NH2; N-terminus assumed) yielded an MIC [1] of 1.6 µM (≈ 4.63 µg/mL), an MIC [2] of 3.4 µM (≈ 9.83 µg/mL) and an MIC [3] of 1.6 µM (≈ 4.63 µg/mL). It also gave an MIC [4] of 3 µM (≈ 8.67 µg/mL), an MIC [5] of 6.8 µM (≈ 19.7 µg/mL) and an MIC [6] of 3 µM (≈ 8.67 µg/mL). It also gave an MIC [7] of 3 µM (≈ 8.67 µg/mL), an MIC [8] of 1.6 µM (≈ 4.63 µg/mL) and an MIC [9] of 3 µM (≈ 8.67 µg/mL). For the same molecule, the MIC [10] was 1.6 µM (≈ 4.63 µg/mL), the MIC [11] was 6 µM (≈ 17.3 µg/mL) and the “interaction of peptide with chloramphenicol (by FICI)” value (E. coli ATCC 25922 [12]) was “synergy (FICI < 0.5 is considered to indicate synergy)”. For the same molecule, the “Antibacterial activity (MIC) after incubating peptide at 4 °C” value (S. aureus (ATCC 25923); [17]) was 3 µM, the “Antibacterial activity (MIC) after incubating peptide at 60 °C” value (S. aureus (ATCC 25923); [18]) was 12.6 µM and the “Antibacterial activity (MIC) after incubating peptide at 90 °C” value (S. aureus (ATCC 25923); [19]) was 16.6 µM. For the same molecule, the “Antibacterial activity (MIC) after incubating peptide at 4 °C” value (E. coli (ATCC 25922); [17]) was 3 µM, the “Antibacterial activity (MIC) after incubating peptide at 60 °C” value (E. coli (ATCC 25922); [18]) was 8.3 µM and the “Antibacterial activity (MIC) after incubating peptide at 90 °C” value (E. coli (ATCC 25922); [19]) was 8.6 µM. For the same molecule, the “Antibacterial activity (MIC) in the presence of 10% FBS” value (E. coli ATCC 25922 [13]; 10% fetal bovine serum in assay diluent with 0.4% BSA, 0.02% glacial acetic acid) was 17.2 µM, the “Antibacterial activity (MIC) in the presence of FeCl3” value (E. coli ATCC 25922 [13]; FeCl3 4 μM in MH broth, 37 °C, 18 h) was 4.3 µM and the “Antibacterial activity (MIC) in the presence of KCl” value (E. coli ATCC 25922 [13]; KCl 4.5 mM in MH broth, 37 °C, 18 h) was 4.3 µM. The “Antibacterial activity (MIC) in the presence of MgCl2” value (E. coli ATCC 25922 [13]; MgCl2 1 mM in MH broth, 37 °C, 18 h) was 8.6 µM, the “Antibacterial activity (MIC) in the presence of NH4Cl” value (E. coli ATCC 25922 [13]; NH4Cl 6 μM in MH broth, 37 °C, 18 h) was 4.3 µM and the “Antibacterial activity (MIC) in the presence of NaCl” value (E. coli ATCC 25922 [13]; NaCl 150 mM in MH broth, 37 °C, 18 h) was 8.3 µM. The “Antibacterial activity (MIC) in the presence of ZnCl2” value (E. coli ATCC 25922 [13]; ZnCl2 8 μM in MH broth, 37 °C, 18 h) was 4.3 µM, the MIC [14] was 13.6 µM (≈ 39.3 µg/mL) and the MIC (Cryptococcus neoformans) was 3 µM (≈ 8.67 µg/mL). For the same molecule, the MIC [15] was 3 µM (≈ 8.67 µg/mL) and the MIC [16] was 6.8 µM (≈ 19.7 µg/mL).
